The results in this text go back to US20240425568A1, “COMBINATION THERAPIES FOR HIV INFECTIONS AND USES THEREOF” (VIIV HEALTHCARE COMPANY, priority 2021, published 2024).

The target in test [1] is T1, cell surface expressed HIV-1 envelope (Human immunodeficiency virus type 1 group M subtype B, UniProt P04578).
T1 construct: cell surface expressed HIV-1 envelope from a productive infection of human CD4^+ T cells; endogenous in cells; host or cells: primary human CD4+ T cells (from healthy-donor PBMCs) productively infected with HIV-1 HxB2 virus
The class given is cell-based, HIV-1 lab strain HxB2. The note with it: for overall percentage of cells that contained bound bnAbs: 0.5 uM temsavir compared to DMSO only treated cells, FIG. 2; for binding of bnAb to the cell surface of CD4+/p24+ cells (mean fluorescent intensity, MFI): HIV infected cells treated with 0.5 uM temsavir for 24 hr, compared to DMSO only treated cells, bnAb 50 ug/mL to 0.01 ug/mL, FIG. 1.
Description: Preparation and HIV-1 infection of target cells: Peripheral blood mononuclear cells (PBMCs) were obtained by continuous-flow leukapheresis from healthy donors, isolated by ficoll-hypaque density gradient centrifugation and cryopreserved in the vapor phase of liquid nitrogen. PBMCs were rapidly thawed to room temperature in a 37° C. water bath and cultured in assay medium (RPMI 1640 media supplemented with 10% fetal calf serum plus 30 U/mL recombinant IL-2) containing 2 ug/mL phytohemagglutinin-P (Sigma) for three days in a humidified incubator at 37° C., 5% CO2. CD4^+ T cells were isolated by negative selection (Stemcell Technologies), washed twice and resuspended with assay medium at a final density of 1-2×10^6 cells/mL and incubated at 37° C., 5% CO2 overnight. Cells were centrifuged at 500×g for 10 minutes, resuspended with assay medium at 5×10^6 cell/mL and 200 uL (1×10^6 total cells) were distributed to 24-well tissue culture treated plates. An HIV-1 lab strain, HxB2 virus, previously propagated in human PBMC cells, was diluted with assay medium containing 50 ug/mL DEAE-dextran and 200 uL was added to the cells in the 24-well plates. The plates were centrifuged at 1,200×g for 1.5 hours and the infected cells were collected and pooled in a 50 ml conical tube. The infected cells were washed twice and resuspended in assay medium to a final density of 1-2×10^6 cells/mL and incubated at 37° C., 5% CO2 for three days.
Treatment of HIV-infected target cells with temsavir and N6 bnAbs: HIV infected cells were centrifuged at 500×g for 10 minutes, resuspended with assay medium at 3×10^6 cell/mL and 50 uL (150,000 total cells) were distributed to 96-well, U-bottom tissue-culture treated plates. […] The antibodies were eluted and diluted in buffer consisting of 150 mM Arginine, 50 mM Sodium acetate, pH 5.5, 150 mM NaCl) were serially titrated in assay medium and added to the temsavir-treated cells for a final concentration range of 50 ug/mL to 0.01 ug/mL. The plates were incubated at 37° C., 5% CO2 for 30 minutes.
Flow cytometry: The assay plates were removed from the incubator and the cells were pelleted by centrifugation at 500×g for 2 minutes at 25° C. The cells were washed twice by mixing with 200 μL of ice cold wash buffer (phosphate buffered saline containing 2% fetal calf serum) with centrifugation at 500×g for 2 minutes at 25° C. for each wash cycle. […] The stained cells were washed twice with wash buffer as indicated above, acquired on a Fortessa cytometer (BD Biosciences) and the data were analyzed by mean fluorescent intensity (MFI) using FlowJo v10.8 software (Tree Star).

For test [2], the system named is HIV infected CD4+ T cells. The test can be described thus: ADCC assay: NK-directed killing of HIV infected CD4+ T cells. The note with it: for NK-directed killing of HIV infected cells mediated by CD4 binding site bnAbs (ADCC): temsavir 50 nM-0.08 nM for 16-24 hours, antibodies 5 ug/mL, Raltegravir in medium. The class given is cell-based, human (infected with HIV-1 lab strain IIIB).
Description: Isolation and preparation of target and effector cells: Peripheral blood mononuclear cells (PBMCs) were obtained by continuous-flow leukapheresis from healthy donors, isolated by ficoll-hypaque density gradient centrifugation and cryopreserved in the vapor phase of liquid nitrogen. PBMCs were rapidly thawed to room temperature in a 37° C. water bath and resuspended in RPMI 1640 media supplemented with 10% fetal calf serum. For the target cells, CD4+T lymphocytes were purified using immunomagnetic negative selection beads as per the manufacturer's instructions (StemCell Technologies). The cells were activated with phytohemagglutinin-P (Sigma; PHA-P; 5 μg/mL) for 72 hours at 37° C., 5% CO2 and then maintained under the same incubation conditions in RPMI 1640 medium supplemented with 10% fetal calf serum plus 50 U/mL recombinant IL-2. Natural Killer (NK) effector cells were purified from autologous PBMCs using immunomagnetic negative selection beads as per the manufacturer's instructions (StemCell Technologies). The cells were maintained in RPMI 1640 medium supplemented with 10% fetal calf serum and incubated at 37° C., 5% CO2 for 24 hr prior to ADCC assay.
Infection of target cells: HIV-1 lab strain IIIB was used to infect the activated CD4+T lymphocytes by spin infection at 1200×g for 1.5 hours in 24-well plates at 25° C. in the presence of 25 μg/mL DEAE-Dextran. The infected cells were collected, washed and resuspended in RPMI 1640 medium supplemented with 10% fetal calf serum plus 50 U/mL recombinant IL-2 and incubated at 37° C., 5% CO2 for 3 days until infection rates reached above 20%.
ADCC assay: HIV infected CD4^+ T cells (targets) were incubated with cell proliferation dye as per the manufacturer's instructions (eFluor670; eBioscience) and plated in 96-well U-bottom plates. Temsavir was dissolved in DMSO and diluted into RPMI 1640 medium supplemented with 10% fetal calf and serially titrated in the same medium in 5-fold increments for a dose range of 50 nM-0.08 nM. […]
The cells were then stained intracellularly for HIV-1 p24, using the Cytofix/Cytoperm Fixation/Permeabilization Kit (BD Biosciences) with subsequent addition of anti-p24 mAb (FITC anti-p24, clone KC57; Beckman Coulter/Immunotech; 1:200 final concentration) for 20-30 minutes at room temperature. […] The percentage of specific killing was calculated with the following formula: (% of p24^+ cells in Targets plus Effectors)−(% of p24^+ cells in Targets plus Effectors plus Abs)/(% of p24^+ cells in Targets alone without antibody or temsavir) by gating on live target cells.

Where two headings read alike, the source gives them in different places.

As to `COc1cnc(-n2cnc(C)n2)c2[nH]cc(C(=O)C(=O)N3CCN(C(=O)c4ccccc4)CC3)c12` [temsavir, 1-(4-benzoylpiperazin-1-yl)-2-[4-methoxy-7-(3-methyl-1,2,4-triazol-1-yl)-1H-pyrrolo[2,3-c]pyridin-3-yl]ethane-1,2-dione], the “overall percentage of cells that contained bound bnAbs” value in test [1] is given as “significant increase”; in test [1] (listed as Temsavir), “enhancement”. Further, the “binding of bnAb to the cell surface of CD4+/p24+ cells (mean fluorescent intensity, MFI)” value in test [1] is given as “enhancement”. In test [2] (effector cells eliminated from the assay, FIG. 4), the “cell death of HIV infected primary cells in the absence of effector cells” value was “does not lead to cell death”. Besides, the “NK-directed killing of HIV infected cells mediated by CD4 binding site bnAbs (ADCC)” value in test [2] (NK effector-to-target ratio 3:1, 24 hours, FIG. 3) is “Dose dependent temsavir enhancement”; in test [2] (NK effector-to-target ratio 3:1, 24 hours, FIG. 3, listed as Temsavir), “enhances”.
“N6-LAGA: Fc binding-reduced N6 antibody, constant domain comprising L235A and G237A mutations; HC SEQ ID NO: 13”: the “binding of bnAb to the cell surface of CD4+/p24+ cells (mean fluorescent intensity, MFI)” value in test [1] is “substantial increase”. In addition, the “magnitude of killing (maximum), percentage of specific killing” value in test [2] (with temsavir titration 50 nM-0.08 nM, antibody 5 ug/mL, NK effector-to-target ratio 3:1, 24 hours, FIG. 3) is recorded as 25%.
